Experimental findings from patent US20230149401A1 (priority 2020, published 2023) are described below.

The test system of this test is HIV particles pseudotyped with SARS-CoV-2 S. The test is classed as cell-based.

Consider `CCN(CC)CCCC(C)Nc1ccnc2cc(Cl)ccc12` (stereo not shown) [chloroquine, reference compound], for which the “Entry of pseudotyped SARS-CoV-2 and its μS1/S2 mutant” value is given as “efficiently blocked entry”.
